The values below are quoted from earlier work in patent US6518456B1, “Process for the production of 1-(aminomethyl)-cyclohexyl-acetic acid in pure form” (Procos S.p.A., priority 2001, dated 2003).

For the data set the following is noted: extremely low toxicity; species and route not given.

For `NCC1(CC(=O)O)CCCCC1` [Gabapentin, 1-(aminomethyl)cyclohexyl-acetic acid], the LD50 is greater than 8000 mg/kg.

Usually LD50 stands for the dose at which mortality reaches 50%.
